{
  "source": "patent US20120129897A1",
  "about": "“BIS HETEROARYL INHIBITORS OF PRO-MATRIX METALLOPROTEINASE ACTIVATION” (priority 2010, published 2012)",
  "biological_target": "T1, MMP9 mediated gelatinase activity (Rattus norvegicus, UniProt P50282)",
  "T1 construct": "from tissue; host or cells: frozen liver sections, female Lewis rats",
  "T1 sequence (P50282 108-708)": "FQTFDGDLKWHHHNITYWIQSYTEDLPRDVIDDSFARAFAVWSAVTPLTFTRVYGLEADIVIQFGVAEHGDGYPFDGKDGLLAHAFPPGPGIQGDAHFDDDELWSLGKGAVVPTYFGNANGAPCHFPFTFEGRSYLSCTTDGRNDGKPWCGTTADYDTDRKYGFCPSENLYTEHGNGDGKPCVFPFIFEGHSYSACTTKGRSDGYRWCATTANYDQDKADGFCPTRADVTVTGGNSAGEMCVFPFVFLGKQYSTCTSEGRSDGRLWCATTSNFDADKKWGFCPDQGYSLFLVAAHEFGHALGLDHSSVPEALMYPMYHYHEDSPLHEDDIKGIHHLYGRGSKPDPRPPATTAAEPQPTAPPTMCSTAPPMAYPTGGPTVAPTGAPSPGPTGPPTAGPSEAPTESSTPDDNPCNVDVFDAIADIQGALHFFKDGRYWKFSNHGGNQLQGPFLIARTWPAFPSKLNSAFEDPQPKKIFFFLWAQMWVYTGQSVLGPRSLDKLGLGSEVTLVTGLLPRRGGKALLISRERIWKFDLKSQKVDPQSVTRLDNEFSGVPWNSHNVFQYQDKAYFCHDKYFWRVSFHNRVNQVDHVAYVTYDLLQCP",
  "test": "In situ zymography of gelatinase activity in livers of SCW-induced rats dosed with compound",
  "type": "in vivo",
  "details": "for Intensity (RLU × 10^6), Mean / Intensity (RLU × 10^6), Rat 1 / Intensity (RLU × 10^6), Rat 2 / Intensity (RLU × 10^6), Rat 3: Day 25-28, liver",
  "text": "In situ zymography provides an alternative approach to assess active MMP9 in tissues (Frederiks). Tissue sections are overlain with fluorescene-conjugated gelatin wherein the conjugation is sufficiently dense to cause the fluorescene to be dye-quenched (DQ). Proteolytic degradation of the DQ-gelatin releases the fluorescene from the quenching effect giving rise to bright green fluorescence at the site of degradation. Because in situ zymography requires the use of frozen sections, calcified tissues are problematic. However, an additional feature of the SCW arthritis model is the development of hepatic granulomatous disease (J Immunol; 1986; 137:2199-2209), and MMP9 reportedly plays a role in macrophage recruitment in the granulomas response to mycobacteria (Infect Immun; 2006; 74:6135-6144). Consequently, granulomatous livers from SCW-treated rats were assessed for active MMP9 by in situ zymography.\nAs described above, Female Lewis (LEW/N) rats, 5-6 weeks of age (80-100 g) were injected (i.p.) with saline or SCW PG-PS. On day 28, when the granulomatous response was well established, animals were sacrificed and livers were frozen in OCT cryo-sectioning medium and […] sections were cut on a Cryome HM 500 M cryotome and mounted on glass microscope slides. Sections were air dried briefly. MMP9 was confirmed as the source of the gelatinase activity in the liver by treating liver sections with monoclonal antibodies directed against the active site of the two major gelatinases MMP9 and MMP2. Liver sections overlain with 50 μL of 100 μg/mL neutralizing mouse monoclonal antibodies directed against MMP9 (Calbiochem, clone 6-6B), or MMP2 (Millipore, clone CA-4001), or with PBS for 1 hr at room temperature. Tissues were rinsed once with PBS, blotted, and briefly air dried and then overlain with DQ-gelatin (Invitrogen) dissolved to 1 mg/mL in deionized water and then diluted 1:10 in 1% wt/vol low gelling point agarose type VII (Sigma) in PBS. The sections were covered with coverslips, incubated in the dark at room temperature for 20 min, and imaged on an Olympus IX80 inverted microscope fitted with fluorescence optics, using SlideBook™ imaging software (Intelligent Imaging Innovations, Inc., Philadelphia, Pa.; version 5.0). Fluorescence intensity was determined (Table 8). When compared to a saline-treated rat, gelatinase activity was abundantly expressed in granulomatous liver sections obtained from a rat with SCW arthritis.\nNext, liver in situ zymography was used to assess the relative presence of active MMP9 in rats dosed with vehicle vs. Compound-α. Female Lewis (LEW/N) rats, 5-6 weeks of age (80-100 g) were injected (i.p.) with saline or SCW PG-PS. Commencing on day 25, randomized groups of rats (n=3 rats/group) received vehicle or 20 or 50 mg/kg Compound-α BID by oral gavage. Vehicle consisted of an aqueous mixture containing 2% (v:v) N-methylpyrrolidone, 5% (v:v) glycerine, and 20% (w:v) captisol. Treatment continued daily through the morning of day 28. Four hrs after the AM dose on day 28, rats were sacrificed and livers assessed for active MMP9 by in situ zymography (Table 9). Gelatinase activity was increased markedly in SCW-induced rats, but activity was reduced by approximately 80% in animals treated with 50 mg/kg Compound-α.",
  "data": [
    {"smiles": "Cc1nc(C)c(-c2csc(Nc3cc(S(N)(=O)=O)ccc3OC(C)C)n2)s1", "note": "[Compound-α, 3-(2′,4′-Dimethyl-[4,5′]bithiazolyl-2-ylamino)-4-isopropoxy-benzenesulfonamide.HBr]", "values": [
      {"measurement": "Intensity (RLU × 10^6), Mean", "setting": "20 mg/kg BID oral", "value": 55.2, "unit": "RLU × 10^6"},
      {"measurement": "Intensity (RLU × 10^6), Rat 1", "setting": "20 mg/kg BID oral", "value": 43.0, "unit": "RLU × 10^6"},
      {"measurement": "Intensity (RLU × 10^6), Rat 2", "setting": "20 mg/kg BID oral", "value": 69.0, "unit": "RLU × 10^6"},
      {"measurement": "Intensity (RLU × 10^6), Rat 3", "setting": "20 mg/kg BID oral", "value": 53.7, "unit": "RLU × 10^6"},
      {"measurement": "Reduction of liver gelatinase activity", "setting": "50 mg/kg BID oral, Day 25-28", "value": "approximately 80%"},
      {"measurement": "Intensity (RLU × 10^6), Mean", "setting": "50 mg/kg BID oral", "value": 11.1, "unit": "RLU × 10^6"},
      {"measurement": "Intensity (RLU × 10^6), Rat 1", "setting": "50 mg/kg BID oral", "value": 3.2, "unit": "RLU × 10^6"},
      {"measurement": "Intensity (RLU × 10^6), Rat 2", "setting": "50 mg/kg BID oral", "value": 25.6, "unit": "RLU × 10^6"},
      {"measurement": "Intensity (RLU × 10^6), Rat 3", "setting": "50 mg/kg BID oral", "value": 4.5, "unit": "RLU × 10^6"}
    ]}
  ]
}
